# Calls of active or inactive are those of the source. The rule behind the calls is not given here.
# Assays:
# [1] = target: Indoleamine 2,3-dioxygenase 1 (Homo sapiens, UniProt P14902); test: Inhibition of recombinant human IDO1 using L-Trp as substrate incubated for 1 hr
# [2] = target: Indoleamine 2,3-dioxygenase 1 (Mus musculus) (UniProt P28776); test: In vivo inhibition of IDO1 in C57BL/6 mouse assessed as reduction in plasma Kyn level at 60 mg/kg, po administered once daily by LC-MS/MS analysis; assay type: functional, organism-based
# Indoleamine 2,3-dioxygenase 1 (Mus musculus), sequence (P28776 whole entry, looked up): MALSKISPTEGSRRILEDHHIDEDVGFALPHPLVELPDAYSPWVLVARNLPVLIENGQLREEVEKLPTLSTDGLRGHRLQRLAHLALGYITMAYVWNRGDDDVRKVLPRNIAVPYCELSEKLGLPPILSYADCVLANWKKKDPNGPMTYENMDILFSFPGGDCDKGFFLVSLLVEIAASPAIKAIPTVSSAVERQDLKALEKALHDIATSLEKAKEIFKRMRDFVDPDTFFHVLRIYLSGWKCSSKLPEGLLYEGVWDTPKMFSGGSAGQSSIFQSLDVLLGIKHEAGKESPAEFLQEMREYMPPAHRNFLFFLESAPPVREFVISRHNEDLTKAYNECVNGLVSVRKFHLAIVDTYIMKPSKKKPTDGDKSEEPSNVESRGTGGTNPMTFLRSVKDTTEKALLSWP
# [3] = target: T1, Thioredoxin reductase 1, cytoplasmic (Homo sapiens, UniProt Q16881); test: Inhibition of TrxR1 in human HeLa cells incubated for 24 hrs; assay type: cell-based
# T1 sequence (Q16881 whole entry): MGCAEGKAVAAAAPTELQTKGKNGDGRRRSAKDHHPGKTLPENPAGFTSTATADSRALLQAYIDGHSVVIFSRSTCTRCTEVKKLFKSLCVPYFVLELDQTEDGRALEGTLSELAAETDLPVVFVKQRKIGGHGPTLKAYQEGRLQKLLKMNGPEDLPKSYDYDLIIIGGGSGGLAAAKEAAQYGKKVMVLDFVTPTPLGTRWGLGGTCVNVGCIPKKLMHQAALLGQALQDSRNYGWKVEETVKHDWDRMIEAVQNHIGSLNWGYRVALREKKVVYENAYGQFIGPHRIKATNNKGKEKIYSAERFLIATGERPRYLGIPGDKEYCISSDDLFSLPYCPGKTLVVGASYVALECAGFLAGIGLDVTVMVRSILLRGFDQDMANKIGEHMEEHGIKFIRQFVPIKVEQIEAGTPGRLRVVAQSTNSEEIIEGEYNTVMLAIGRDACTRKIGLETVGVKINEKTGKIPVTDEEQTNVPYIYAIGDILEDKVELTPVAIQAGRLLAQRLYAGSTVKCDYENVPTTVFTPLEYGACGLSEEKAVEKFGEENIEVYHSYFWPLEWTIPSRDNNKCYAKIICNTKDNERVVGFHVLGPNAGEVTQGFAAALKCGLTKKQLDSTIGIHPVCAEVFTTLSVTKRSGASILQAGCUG
# [4] = target: Indoleamine 2,3-dioxygenase 1 (Mus musculus) (UniProt P28776); test: In vivo inhibition of IDO1 in BALB/c mouse implanted with mouse CT-26 cells assessed as increase in plasma Trp level at 60 mg/kg, po administered once daily by LC-MS/MS analysis; assay type: functional, organism-based
# [5] = Toxicity in athymic BALB/c mouse xenografted with human HCT-116 cells assessed as change in liver morphology at 15 to 60 mg/kg, ig administered daily for 28 days and measured every 4 days; assay type: organism-based; settings: in vivo, po, 672 h, dose 15-60 mg/kg, time 28 day
# [6] = target: Tryptophan 2,3-dioxygenase (Homo sapiens, UniProt P48775); test: Inhibition of TDO (unknown origin) using L-Trp as substrate incubated for 75 mins
# Tryptophan 2,3-dioxygenase, sequence (P48775 whole entry): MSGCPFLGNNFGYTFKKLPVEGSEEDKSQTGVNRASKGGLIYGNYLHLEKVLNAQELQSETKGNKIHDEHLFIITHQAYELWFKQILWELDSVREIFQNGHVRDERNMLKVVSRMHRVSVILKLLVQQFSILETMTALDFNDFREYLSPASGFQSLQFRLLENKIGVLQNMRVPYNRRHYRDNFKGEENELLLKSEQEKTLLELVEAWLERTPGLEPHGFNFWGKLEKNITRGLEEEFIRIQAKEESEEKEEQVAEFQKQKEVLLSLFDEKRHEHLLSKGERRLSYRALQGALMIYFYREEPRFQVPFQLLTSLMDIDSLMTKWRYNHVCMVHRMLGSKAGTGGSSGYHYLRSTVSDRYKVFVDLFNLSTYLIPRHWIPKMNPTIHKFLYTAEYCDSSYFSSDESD
# [7] = Toxicity in athymic BALB/c mouse xenografted with human HCT-116 cells assessed as change in lung morphology at 15 to 60 mg/kg, ig administered daily for 28 days and measured every 4 days; assay type: organism-based; settings: in vivo, po, 672 h, dose 15-60 mg/kg, time 28 day
# [8] = target: Indoleamine 2,3-dioxygenase 1 (Mus musculus) (UniProt P28776); test: In vivo inhibition of IDO1 in BALB/c mouse implanted with mouse CT-26 cells assessed as increase in tumor Trp level at 60 mg/kg, po administered once daily by LC-MS/MS analysis; assay type: functional, organism-based
# HCT-116 [9] = test: Induction of apoptosis in human HCT-116 cells assessed as apoptotic rate at 2.5 uM incubated for 24 hrs by Annexin-V/PI staining based flow cytometry analysis; assay type: functional
# HCT-116 [10] = test: Induction of apoptosis in human HCT-116 cells assessed as apoptotic rate at 10 uM pretreated with NAC incubated for 24 hrs by Annexin-V/PI staining based flow cytometry analysis (reference value: 9.8 +/- 1.59%); assay type: functional
# Mus musculus = test: In vivo inhibition of TrxR1 in human HCT-116 cells xenografted in athymic nude BALB/c mouse assessed as reduction in TrxR1 activity at 15 to 60 mg/kg, ig administered daily for 28 days and measured every 4 days; assay type: functional, organism-based; settings: dose 15-60 mg/kg, time 28.0 day
# HCT-116 [11] = test: Induction of apoptosis in human HCT-116 cells assessed as apoptotic rate at 10 uM incubated for 24 hrs by Annexin-V/PI staining based flow cytometry analysis; assay type: functional
# IDO1 = test: Selectivity ratio of IC50 for cytotoxicity against human HeLa cells to EC50 for inhibition of IDO1 in human HeLa cells; assay type: cell-based; settings: read-out: Ratio IC50/EC50
# HCT-116 [12] = test: Induction of cell cycle arrest in human HCT-116 cells assessed as G1/S phase arrest at 2.5 to 10 uM incubated for 24 hrs by PI staining based flow cytometry analysis; assay type: functional; settings: dose 2.5-10 µM
# HCT-116 [13] = test: Induction of apoptosis in human HCT-116 cells assessed as caspase-7 activation incubated for 24 hrs; assay type: functional, cell-based; settings: dose 2.5-10 µM
# [14] = target: T1, Thioredoxin reductase 1, cytoplasmic; test: Inhibition of TrxR1 in human HCT-116 cells incubated for 24 hrs; assay type: cell-based
# HeLa = test: Induction of cell cycle arrest in human HeLa cells assessed as G1/S phase arrest at 2.5 to 10 uM incubated for 24 hrs by PI staining based flow cytometry analysis; assay type: functional; settings: dose 2.5-10 µM
# [15] = target: T2, Thioredoxin reductase 1, cytoplasmic (Mus musculus, UniProt Q9JMH6); test: Inhibition of TrxR1 in mouse CT26 cells incubated for 24 hrs; assay type: cell-based
# T2 sequence (Q9JMH6 whole entry): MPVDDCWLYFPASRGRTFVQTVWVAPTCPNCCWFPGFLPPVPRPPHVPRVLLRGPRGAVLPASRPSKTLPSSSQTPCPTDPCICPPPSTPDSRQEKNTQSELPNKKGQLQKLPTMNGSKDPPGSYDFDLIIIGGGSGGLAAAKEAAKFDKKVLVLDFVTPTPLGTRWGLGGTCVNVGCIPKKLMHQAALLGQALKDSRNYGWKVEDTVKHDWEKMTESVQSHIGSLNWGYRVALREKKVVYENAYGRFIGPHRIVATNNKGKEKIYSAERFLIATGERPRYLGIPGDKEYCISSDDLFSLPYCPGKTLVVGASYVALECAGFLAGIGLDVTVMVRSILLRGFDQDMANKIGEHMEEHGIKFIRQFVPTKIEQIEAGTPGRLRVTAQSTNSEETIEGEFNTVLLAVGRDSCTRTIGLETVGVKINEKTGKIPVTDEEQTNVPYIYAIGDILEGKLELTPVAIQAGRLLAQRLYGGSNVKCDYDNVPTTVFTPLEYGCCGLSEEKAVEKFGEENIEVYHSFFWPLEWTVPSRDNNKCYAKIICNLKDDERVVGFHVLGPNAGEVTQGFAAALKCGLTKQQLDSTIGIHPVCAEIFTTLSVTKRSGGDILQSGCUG
# [16] = Toxicity in athymic BALB/c mouse xenografted with human HCT-116 cells assessed as change in heart morphology at 15 to 60 mg/kg, ig administered daily for 28 days and measured every 4 days; assay type: organism-based; settings: in vivo, po, 672 h, dose 15-60 mg/kg, time 28 day
# [17] = Toxicity in athymic nude BALB/c mouse assessed as weight gain at 15 to 60 mg/kg, ig administered daily for 28 days and measured every 4 days; assay type: organism-based; settings: in vivo, po, 672 h, dose 15-60 mg/kg, time 28 day
# [18] = target: Indoleamine 2,3-dioxygenase 1 (Mus musculus) (UniProt P28776); test: In vivo inhibition of IDO1 in C57BL/6 mouse assessed as reduction in plasma Kyn/Trp ratio at 60 mg/kg, po administered once daily by LC-MS/MS analysis; assay type: functional, organism-based
# Indoleamine 2,3-dioxygenase 1, sequence (P14902 whole entry): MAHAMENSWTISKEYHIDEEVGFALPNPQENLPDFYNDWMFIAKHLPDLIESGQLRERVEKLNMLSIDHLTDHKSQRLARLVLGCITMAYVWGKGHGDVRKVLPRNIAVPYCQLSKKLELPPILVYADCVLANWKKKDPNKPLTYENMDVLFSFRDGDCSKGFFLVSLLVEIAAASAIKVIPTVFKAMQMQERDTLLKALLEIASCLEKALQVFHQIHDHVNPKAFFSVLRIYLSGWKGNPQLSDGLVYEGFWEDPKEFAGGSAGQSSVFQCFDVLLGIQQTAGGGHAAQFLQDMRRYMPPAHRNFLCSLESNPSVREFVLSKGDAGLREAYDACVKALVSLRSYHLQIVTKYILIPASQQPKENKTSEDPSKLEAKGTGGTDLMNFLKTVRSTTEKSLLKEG
compound,measurement,setting,value
O=C(Cc1ccc(O)cc1)Nc1nnc(CCCNc2nonc2/C(=N\O)Nc2ccc(F)c(Br)c2)s1,IC50,[1],0.05 µM
same,Activity,[2],Active
same,EC50,[3],13.1 µM
same,Activity,[4],Active
same,Activity,[5],Non-Toxic
same,IC50,[6],54.2 µM
same,Activity,[7],Non-Toxic
same,Activity,[8],Active
same,Activity,HCT-116 [9],22.57%
same,Activity,HCT-116 [10],15.21%
same,Activity,Mus musculus,Active
same,Activity,HCT-116 [11],60.55%
same,selectivity ratio,IDO1,224
same,Activity,HCT-116 [12],Active
same,Activity,HCT-116 [13],Dose-Dependent Effect
same,EC50,[14],3.14 µM
same,Activity,HeLa,Active
same,EC50,[15],25.7 µM
same,Activity,[16],Non-Toxic
same,Activity,[17],Toxic
same,Activity,[18],Active
